This is an account of results in patent publication US8383609B2, “Phosphorus containing heterocyclic compounds, sugar analogues, and compositions having anti-cancer activity containing the same” (Centre National de la Recherche Scientifique, priority 2007, dated 2013).

The subject of data set [1] is C6 Cells from glioblastomas of rats. Briefly: Cytotoxicity on the C6 cell line (quantitative neutral red assay).
Procedure: c) C6 Cells from glioblastomas of rats. […] These cells were cultured in MEM (Minimum Essential Medium), in the presence of 5% of foetal calf serum. Incubation was conducted at 37° C. in a 5% CO2 humidity atmosphere.
The cells were seeded in 96-well plates with 2000 cells per well in 200 μL of MEM/HANKS (70/30) in the presence of 5% of foetal calf serum. The compounds were added 24 hours after seeding. […] The concentration range used did vary from 50 μM to 24 nM by conducting ½ to ½ serial dilutions.
(§1) The activity evaluation of the test compounds was effected by measuring the cell viability in the culture wells, by means of a so called “neutral red assay” that did consist in contacting the cells with this dye, the accumulation of which in cell acidic compartments does express the health status of the latter. The neutral red test makes it thus possible to know the cytotoxic effect of a compound. The dye was used from a 0.33% stock solution in PBS. 20 μL of such solution were added to each culture well containing 300 μL of culture medium and the plates were incubated at 37° C. for three hours.
(§2) The supernatant of each well was then removed by succion. […] The wells were evacuated again, and the cells were lyzed, thus salting out the dye in the well, this procedure being effected with a solution made of ethanol, water and acetic acid (50/49/1). The colour intensity obtained directly indicated the cell viability. It was quantified by measuring the absorbance at 570 nm. This measure was effected on a 96-well plate reader, of BIO-RAD Microplate reader 550 type, providing an optical density value (OD) for each well of culture.
(§3) Thereafter IC50 values were therefore determined by establishing the OD well X/OD control ratio, thus directly providing the percentage of living cells in the medium.
The quantitative evaluation of the cytotoxicity of the compounds of the invention against modified cells that are said to be “cancerous” was conducted on the C6 cell line. Plates were seeded at a cell density of 2000 cells per well. This density enabled to obtain a 80% confluence after a 4 day-culture for non treated cells.
In data set [2] the test system is astrocyte primary cultures from the cortex of a newborn rat. In words: Cytotoxicity on the non modified astrocytes, so called healthy cells (quantitative assay). Particulars: second day after addition, 50 μM to 24 nM.
Procedure: (§4) b) Astrocyte primary cultures from the cortex of a newborn rat for testing the so called “healthy cells”. This primary culture was conducted based on the brain tissue removed from the cortex of a newborn rat. After homogeneization, trypsinization and centrifugation, cells were distributed in 24-well plates for about 3 weeks. Oligodendrocytes were then removed by stirring the culture plates for 30 minutes and by changing the supernatant with fresh medium.
as §1, §2, §3
(§5) Cytotoxicity evaluation assays against the so called “healthy cells” were conducted on astrocyte primary cultures collected from the cortex of newborn rats, mimetizing the physiology of a so called “healthy cell”, i.e. a non cancerous cell.
(§6) These cells being unmodified, their division time was very long (about 50 hours). It was thus necessary to choose a higher initial seeding concentration (5000 cells per well). The compounds (1) were introduced only after 96 hours so as to allow the cells to adhere to the well walls and to divide once or twice. The concentration range for the test compounds (1) varied from 50 μM to 24 nm as for the C6 cells. Controls were carried out the second day following the introduction of the compounds (1). Two plates were made available for each measurement.
For data set [3], the system named is spontaneously converted astrocytes collected from the cortex of a newborn rat. Briefly: Cytotoxicity on the spontaneously converted astrocytes (qualitative assay, microscopic observation). It counts as cell-based. As to conditions: microscopic observation each day for four days, 50 μM to 400 nM. From the text:
a) Spontaneously converted astrocytes collected from the cortex of a newborn rat (see Bochelen D., Langley K., Adamczyk M., Kupfberg, Hor F., Vincendon G., Mersel M., J. Neurosci. Res., 2000, 62, 99-111), that is to say from normal glial cells maintained in culture and that became able to divide to infinity. These cells are not able to induce tumors after implantation in the rat but did avoid the cell cycle regulation. This cell line was maintained in culture in culture flasks in the presence of 5 mL of culture medium MH5 comprising 70% of MEM and 30% of a Hanks solution. This medium was supplemented with 5% of foetal calf serum. The culture medium was changed every three days. Cells were incubated at 37° C. in an air/CO2 atmosphere (95/5). For the experiments, a replanting was effected after removal of the culture medium, cells were treated for 4 to 5 minutes with trypsine (0.1%). The cell suspension was then placed in 5 mL of fresh medium, 50 μL of this solution were collected to perform the cell counting. […]
These assays conducted on compounds 3.28, 3.8, 3.5. […] The effect was evaluated by simple microscopic observation of the culture plates. […] The evaluated compounds did present an activity at a very low concentration. An activity could be observed after 72 h to 96 h (days 3 and 4) for the whole evaluated compounds.

For data set [4], the system named is astrocyte primary cultures from the cortex of a newborn rat.
Procedure: as §4, §1, §2, §3, §5, §6
Setting [5] is: C6 cell line, high concentration.

Where two headings read alike, the source gives them in different places. Where only a bound is given, the exact number is not on record here.

“6-(1,2-dihydroxy-ethyl)-2,2-dimethyl-2-oxo-2-diethoxymethyl-tetrahydro-6λ*5*-[1,3]dioxolo[4,5-d][1,2]oxaphosphinan-3-tosyl [Compound 3.6]”: it took 1500 nM to reach half-maximal inhibition in data set [1] (C6 cell line, neutral red cell viability, measures conducted on day 2 or 3) (IC50).

For `O=[N+]([O-])c1ccc([P@]2(=O)O[C@H](COCc3ccccc3)[C@@H](OCc3ccccc3)[C@H](OCc3ccccc3)C2O)cc1` (single isomer, unassigned) [Compound 3.52, 4,5-bis-benzyloxy-6-benzyloxymethyl-2-(p-nitro)phenyl-2-oxo-2λ^5-[1,2]oxaphosphinan-3-ol], the IC50 in data set [1] (Rattus norvegicus, C6, 48 h) was in the range of 100 to 5000 nM. Moreover, the “cytotoxicity on healthy cells (cell viability)” value (“cytotoxicity on healthy cells” below) in data set [2] is “absence of cytotoxicity”.

In data set [1] (Rattus norvegicus, C6, 48 h), `CC1(C)O[C@H]2[C@@H]([C@H]3COC(C)(C)O3)O[P@@](=O)(c3ccccc3)[C@@H](Oc3ccc([N+](=O)[O-])cc3)[C@H]2O1` [Compound 3.9a, 4-(2,2-Dimethyl-[1,3]dioxolan-4-yl)-2,2-dimethyl-2-oxo-2-phenyl-tetrahydro-6λ*5*-[1,3]dioxolo[4,5-d][1,2]oxaphosphinan-3-oxy-p-nitrophenyl] came in with an IC50 of 400 to 1000 nM.

Consider `CCOC(OCC)P1(=O)O[C@H]([C@H]2COC(C)(C)O2)[C@@H]2OC(C)(C)O[C@@H]2C1O` (some centres unmarked) [Compound 3.19a, 4-(2,2-Dimethyl-[1,3]dioxolan-4-yl)-2,2-dimethyl-2-oxo-2-diethoxymethyl-tetrahydro-6λ*5*-[1,3]dioxolo[4,5-d][1,2]oxaphosphinan-3-ol], for which, in data set [3], the “cytotoxic activity on spontaneously converted astrocytes” value is “cytotoxic activity”.

For the compound `CC1(C)O[C@H]2[C@@H]([C@H]3COC(C)(C)O3)O[P@@](=O)(c3ccccc3)[C@@H](NCc3ccccc3)[C@H]2O1` [Compound 3.28, 4-(2,2-Dimethyl-[1,3]dioxolan-4-yl)-2,2-dimethyl-2-oxo-2-phenyl-tetrahydro-6λ*5*-[1,3]dioxolo[4,5-d][1,2]oxaphosphinan-3-aminobenzyl], the “cytotoxic activity on spontaneously converted astrocytes” value in data set [3] is “cytotoxic activity”. The compound further had a half-maximal inhibitory concentration (IC50) in data set [1] (Rattus norvegicus, C6, 48 h) of 800 to 5000 nM. Also, the “cytotoxicity on healthy cells” value in data set [2] is recorded as “absence of cytotoxicity”.

As to `Cc1ccc(N[C@H]2[C@H]3OC(C)(C)O[C@H]3[C@@H]([C@H]3COC(C)(C)O3)O[P@@]2(=O)c2ccccc2)cc1` [Compound 3.30a, 4-(2,2-Dimethyl-[1,3]dioxolan-4-yl)-2,2-dimethyl-2-oxo-2-phenyl-tetrahydro-6λ*5*-[1,3]dioxolo[4,5-d][1,2]oxaphosphinan-3-aminotoluyl], the “mortality of C6 cells when highly concentrated” value (“mortality of C6 cells” for short) in data set [1] (setting [5]) was “total mortality”. This compound also showed an IC50 in data set [1] (Rattus norvegicus, C6, 48 h) of 500 to 5000 nM. Also, in data set [2], the “cytotoxicity on healthy cells” value was “did not show any significative effect”.

On to `Cc1ccc(N[C@H]2[C@H]3OC(C)(C)O[C@H]3[C@@H]([C@H]3COC(C)(C)O3)O[P@@]2(=O)c2ccccc2)cc1` [Compound 3.30b, 4-(2,2-Dimethyl-[1,3]dioxolan-4-yl)-2,2-dimethyl-2-oxo-2-phenyl-tetrahydro-6λ*5*-[1,3]dioxolo[4,5-d][1,2]oxaphosphinan-3-aminotoluyl], for which, in data set [2], the “cytotoxicity on healthy cells” value is listed as “absence of cytotoxicity”.

In data set [1] (Rattus norvegicus, C6, 48 h), `O=[P@@]1(c2ccccc2)O[C@H](COCc2ccccc2)[C@@H](OCc2ccccc2)[C@H](OCc2ccccc2)C1O` (some centres unmarked) [Compound 3.48a, 4,5-bis-benzyloxy-6-benzyloxymethyl-2-phenyl-2-oxo-2λ^5-[1,2]oxaphosphinan-3-ol] showed an IC50 of 1000 to 2000 nM.

`COc1ccc([P@]2(=O)O[C@H](COCc3ccccc3)[C@@H](OCc3ccccc3)[C@H](OCc3ccccc3)C2O)cc1` (some centres unmarked) [Compound 3.51a, 4,5-bis-benzyloxy-6-benzyloxymethyl-2-(p-methoxy)phenyl-2-oxo-2λ^5-[1,2]oxaphosphinan-3-ol]: the “mortality of C6 cells” value in data set [1] (setting [5]) is listed as “total mortality”. This compound returned an IC50 in data set [1] (Rattus norvegicus, C6, 48 h) of 100 to 5000 nM. Also, in data set [2], the “cytotoxicity on healthy cells” value is recorded as “did not show any significative effect”.

As to `CC1(C)O[C@H]2[C@@H]([C@H]3COC(C)(C)O3)O[P@@](=O)(c3ccccc3)[C@@H](OC(=N)C(Cl)(Cl)Cl)[C@H]2O1` [Compound 3.57, 4-(2,2-Dimethyl-[1,3]dioxolan-4-yl)-2,2-dimethyl-2-oxo-2-phenyl-tetrahydro-6λ*5*-[1,3]dioxolo[4,5-d][1,2]oxaphosphinan-3-imidate], the “cytotoxicity on healthy cells” value in data set [4] was “did not show any significative effect”. Further, the “cell death of healthy cells” value in data set [4] (rat) is given as not above 20%. Further, in data set [1], the “mortality of C6 cells” value is “total mortality”. In data set [1] (Rattus norvegicus, C6, 48 h), the IC50 was 100 to 5000 nM.
